According to US11325917B2, “Thienopyrazine carboxamides as ubiquitin-specific protease inhibitors” (Valo Health, Inc., priority 2016, dated 2022):

Assays:
[1] = target: USP28 (Homo sapiens (Human), UniProt Q96RU2); test: Ubiquitin-Rhodamine 110 Assay for USP28 Activity; type: biochemical; conditions: Ub-Rh110 substrate 25 nM
Method: Each assay was performed in a final volume of 20 μL in assay buffer containing 20 mM Tris-HCl (pH 8.0, (1M Tris-HCl, pH 8.0 solution; Corning 46-031-CM)), 2 mM CaCl2 (1M Calcium Chloride solution; Sigma #21114) 2 mM BME (2-Mercaptoethanol; Sigma 63689-25ML-F), 0.01% Prionex ([…] filtered, Sigma #G-0411), and 0.01% Triton X-100. Stock compound solutions were stored at −20° C. as 10 mM in DMSO. Up to 1 month prior to the assay, 2 mM test compounds were pre-dispensed into assay plates (Black, low volume; Corning #3820) and frozen at −20° C. Prestamped assay plates were allowed to come to room temperature on the day of the assay. […] Plates were incubated stacked for 90 minutes at room temperature before fluorescence was read on the Envision (Excitation at 485 nm and Emission at 535 nm; Perkin Elmer) or on the PheraSTAR (Excitation at 485 nm and Emission at 535 nm; BMG Labtech).
For follow-up studies, Each assay was performed in a final volume of 15 μL in assay buffer containing 20 mM Tris-HCl (pH 8.0, (1M Tris-HCl, pH 8.0 solution; Corning 46-031-CM)), 3 mM BME (2-Mercaptoethanol; Sigma 63689-25ML-F), 0.03% BGG ([…] filtered, Sigma, G7516-25G), and 0.01% Triton X-100 (Sigma, T9284-10L). […] Fluorescence was read on the Envision (Excitation at 485 nm and Emission at 535 nm; Perkin Elmer) or on the PheraSTAR (Excitation at 485 nm and Emission at 535 nm; BMG Labtech). […]

[2] = target: USP25 (Homo sapiens (Human), UniProt Q9UHP3); test: Ubiquitin-Rhodamine 110 Assay for USP25 Activity; type: biochemical; conditions: Ub-Rh110 substrate 25 nM
Method: The assay was performed in a final volume of 9 μL in assay buffer containing 20 mM Tris-HCl (pH 8.0, (1M Tris-HCl, pH 8.0 solution; Corning 46-031-CM)), 3 mM BME (2-Mercaptoethanol; Sigma 63689-25ML-F), 0.03% BGG (0.22 μM filtered, Sigma, G7516-25G), and 0.01% Triton X-100 (Sigma, T9284-10L). Nanoliter quantities of 10-point, 3-fold serial dilution in DMSO was pre-dispensed into 1536 assay plates (Corning, #3724BC) for a final test concentration of 25 μM to 1.3 nM, top to lowest dose, respectively. Enzyme USP25, construct USP25-His6, (Boston Biochem E-546). […] Fluorescence was read on the Envision (Excitation at 485 nm and Emission at 535 nm; Perkin Elmer) or on the PheraSTAR (Excitation at 485 nm and Emission at 535 nm; BMG Labtech).
For both the USP28 and USP25 assay formats Data were reported as percent inhibition compared with control wells based on the following equation: % inh=1−((FLU−AveLow)/(AveHigh−AveLow)) where FLU=measured Fluorescence, AveLow=average Fluorescence of no enzyme control (n=16), and AveHigh=average Fluorescence of DMSO control (n=16). IC50 values were determined by curve fitting of the standard 4 parameter logistic fitting algorithm included in the Activity Base software package: IDBS XE Designer Model205. […]

Chain of USP25 (Q9UHP3 whole entry): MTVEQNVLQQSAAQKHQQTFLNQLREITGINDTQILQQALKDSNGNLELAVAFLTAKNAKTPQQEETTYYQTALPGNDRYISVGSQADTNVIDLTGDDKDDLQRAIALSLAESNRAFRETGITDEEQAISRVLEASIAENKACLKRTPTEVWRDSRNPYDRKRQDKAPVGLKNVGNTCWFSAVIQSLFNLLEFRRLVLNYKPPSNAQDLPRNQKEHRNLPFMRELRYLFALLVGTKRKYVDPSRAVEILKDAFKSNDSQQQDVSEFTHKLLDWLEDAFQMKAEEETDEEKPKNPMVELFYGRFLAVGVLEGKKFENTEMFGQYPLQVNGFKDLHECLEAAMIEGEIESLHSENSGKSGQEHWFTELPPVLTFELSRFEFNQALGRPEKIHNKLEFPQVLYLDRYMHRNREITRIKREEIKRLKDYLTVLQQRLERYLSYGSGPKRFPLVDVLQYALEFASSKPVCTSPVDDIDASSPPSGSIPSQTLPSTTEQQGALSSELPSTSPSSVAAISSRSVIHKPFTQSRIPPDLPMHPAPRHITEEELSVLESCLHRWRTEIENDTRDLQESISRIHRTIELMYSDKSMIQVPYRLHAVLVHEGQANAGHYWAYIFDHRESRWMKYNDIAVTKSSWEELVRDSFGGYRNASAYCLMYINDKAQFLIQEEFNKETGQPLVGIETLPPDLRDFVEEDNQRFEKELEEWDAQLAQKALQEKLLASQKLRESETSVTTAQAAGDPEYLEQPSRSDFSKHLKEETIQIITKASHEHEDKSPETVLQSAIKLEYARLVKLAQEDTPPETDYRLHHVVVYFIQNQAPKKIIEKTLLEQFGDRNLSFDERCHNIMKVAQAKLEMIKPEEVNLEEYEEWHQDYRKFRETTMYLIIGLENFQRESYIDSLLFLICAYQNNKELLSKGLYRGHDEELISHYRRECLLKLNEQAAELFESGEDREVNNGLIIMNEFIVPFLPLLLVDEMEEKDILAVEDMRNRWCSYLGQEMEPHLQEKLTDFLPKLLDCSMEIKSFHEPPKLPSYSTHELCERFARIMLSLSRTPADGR
Chain of USP28 (Q96RU2 whole entry): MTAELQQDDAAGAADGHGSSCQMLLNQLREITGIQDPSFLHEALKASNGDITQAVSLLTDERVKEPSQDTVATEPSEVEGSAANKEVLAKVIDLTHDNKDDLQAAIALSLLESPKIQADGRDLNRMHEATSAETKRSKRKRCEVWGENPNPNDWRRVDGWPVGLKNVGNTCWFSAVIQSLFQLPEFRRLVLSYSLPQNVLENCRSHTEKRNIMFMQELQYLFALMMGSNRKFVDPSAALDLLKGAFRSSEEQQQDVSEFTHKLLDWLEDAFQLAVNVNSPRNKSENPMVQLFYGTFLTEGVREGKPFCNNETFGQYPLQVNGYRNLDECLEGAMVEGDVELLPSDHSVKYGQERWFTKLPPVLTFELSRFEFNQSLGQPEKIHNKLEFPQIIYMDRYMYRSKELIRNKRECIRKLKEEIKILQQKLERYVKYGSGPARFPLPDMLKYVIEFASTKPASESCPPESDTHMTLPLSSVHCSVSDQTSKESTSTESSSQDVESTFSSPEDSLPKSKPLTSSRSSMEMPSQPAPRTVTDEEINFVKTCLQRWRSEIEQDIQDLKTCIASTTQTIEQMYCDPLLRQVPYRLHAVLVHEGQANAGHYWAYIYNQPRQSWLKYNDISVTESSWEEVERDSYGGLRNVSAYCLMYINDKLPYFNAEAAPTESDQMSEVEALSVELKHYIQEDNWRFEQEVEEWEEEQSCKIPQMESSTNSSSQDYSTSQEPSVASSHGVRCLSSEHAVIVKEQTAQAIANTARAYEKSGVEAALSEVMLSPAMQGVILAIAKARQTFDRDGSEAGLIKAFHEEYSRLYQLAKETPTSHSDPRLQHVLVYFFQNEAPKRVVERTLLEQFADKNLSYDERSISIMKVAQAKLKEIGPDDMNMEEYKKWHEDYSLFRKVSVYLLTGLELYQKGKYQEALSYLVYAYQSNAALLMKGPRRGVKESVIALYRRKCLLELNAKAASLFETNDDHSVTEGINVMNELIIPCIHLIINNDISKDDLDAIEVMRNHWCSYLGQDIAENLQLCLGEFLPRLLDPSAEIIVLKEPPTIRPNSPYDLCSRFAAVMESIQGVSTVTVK

Structure (SMILES): Cc1cnc2c(N)c(C(=O)NCCc3cc(F)c(N4CC5CNCC(C4)O5)cc3F)sc2n1 [Compound I-20]
- IC50 [1]: < 200 nM
- IC50 [2]: < 200 nM
